From patent US11051515B2, “3-acyl-benzamides and their use as herbicides” (Bayer Aktiengesellschaft, priority 2017, dated 2021)

What was measured:
STEME [1] = test: Post-emergence action against STEME; assay type: in vivo, Stellaria media; details: post-emergence, dosage 80 g/ha
Outline: (§1)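 Post-emergence foliar spray on greenhouse plants at the one-leaf stage, using wettable-powder or emulsion-concentrate formulations in water (600 to […], plus 0.2% wetting agent). Damage scored by eye roughly 3 weeks later against untreated plants: 0% = like control, 100% = dead.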

VERPE [2] = test: Post-emergence action against VERPE; assay type: in vivo, Veronica persica; details: dosage 80 g/ha
Outline: as §1

VERPE [3] = test: Pre-emergence action against VERPE; assay type: in vivo, Veronica persica; details: Dosage 320 g/ha, pre-emergence
Outline: (§2)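 Seeds sown in sandy loam in wood-fiber pots and covered with soil. Greenhouse growth; visual damage scored after 3 weeks versus untreated controls (100% = dead, 0% = like control).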

CYPES [4] = test: Pre-emergence action against CYPES; assay type: in vivo, Cyperus esculentus; details: pre-emergence, dosage 320 g/ha, scored visually after 3 weeks vs untreated controls
Outline: as §2

ECHCG [5] = test: Post-emergence action against ECHCG; assay type: in vivo, Echinochloa crus-galli; details: post-emergence, dosage 80 g/ha, visual assessment about 3 weeks after treatment vs untreated controls
Outline: as §1

SETVI [6] = test: Pre-emergence action against SETVI; assay type: in vivo, Setaria viridis; details: pre-emergence, dosage 320 g/ha, scored visually after 3 weeks vs untreated controls
Outline: as §2

ALOMY = test: Pre-emergence action against ALOMY; assay type: in vivo, Alopecurus myosuroides; details: dosage 320 g/ha; pre-emergence; scored visually after 3 weeks vs untreated controls; 100% = plants have died, 0% = like control plants
Outline: as §2

MATIN [7] = test: Pre-emergence action against MATIN; assay type: in vivo, Matricaria inodora; details: Dosage 320 g/ha, pre-emergence
Outline: as §2

AMARE [8] = test: Pre-emergence action against AMARE; assay type: in vivo, Amaranthus retroflexus; details: pre-emergence, dosage 320 g/ha, scored visually after 3 weeks vs untreated controls
Outline: as §2

ABUTH [9] = test: Pre-emergence action against ABUTH; assay type: in vivo, Abutilon theophrasti; details: pre-emergence, dosage 320 g/ha, scored visually after 3 weeks vs untreated controls
Outline: as §2

ECHCG [10] = test: Pre-emergence action against ECHCG; assay type: in vivo, Echinochloa crus-galli; details: pre-emergence, dosage 320 g/ha, scored visually after 3 weeks vs untreated controls
Outline: as §2

AVEFA = test: Pre-emergence action against AVEFA; assay type: in vivo, Avena fatua; details: dosage 320 g/ha, scored visually after 3 weeks vs untreated controls
Outline: as §2

VIOTR [11] = test: Post-emergence action against VIOTR; assay type: in vivo, Viola tricolor; details: post-emergence, dosage 80 g/ha
Outline: as §1

ABUTH [12] = test: Post-emergence action against ABUTH; assay type: in vivo, Abutilon theophrasti; details: post-emergence, dosage 80 g/ha, visual assessment about 3 weeks after treatment vs untreated controls
Outline: as §1

AMARE [13] = test: Post-emergence action against AMARE; assay type: in vivo, Amaranthus retroflexus; details: post-emergence, dosage 80 g/ha, visual assessment about 3 weeks after treatment vs untreated controls
Outline: as §1

PHBPU = test: Post-emergence action against PHBPU; assay type: in vivo, Pharbitis purpurea; details: post-emergence, dosage 80 g/ha
Outline: as §1

VIOTR [14] = test: Pre-emergence action against VIOTR; assay type: in vivo, Viola tricolor; details: Dosage 320 g/ha, pre-emergence
Outline: as §2

LOLMU = test: Pre-emergence action against LOLMU; assay type: in vivo, Lolium multiflorum; details: dosage 320 g/ha, scored visually after 3 weeks vs untreated controls
Description: (§3) Seeds of monocotyledonous and dicotyledonous weed plants and crop plants are laid out in sandy loam soil in wood-fiber pots and covered with soil. The compounds of the invention, formulated in the form of wettable powders (WP) or as emulsion concentrates (EC), are then applied to the surface of the covering soil in the form of an aqueous suspension or emulsion at a water application rate equating to […], with addition of 0.2% wetting agent. After the treatment, the pots are placed in a greenhouse and kept under good growth conditions for the trial plants. The damage to the test plants is scored visually after a test period of 3 weeks by comparison with untreated controls (herbicidal activity in percent (%): 100% activity=the plants have died, 0% activity=like control plants).

STEME [15] = test: Pre-emergence action against STEME; assay type: in vivo, Stellaria media; details: Dosage 320 g/ha, pre-emergence
Outline: as §2

MATIN [16] = test: Post-emergence action against MATIN; assay type: in vivo, Matricaria inodora; details: post-emergence, dosage 80 g/ha, visual assessment about 3 weeks after treatment vs untreated controls
Outline: as §1

CYPES [17] = test: Post-emergence action against CYPES; assay type: in vivo, Cyperus esculentus; details: post-emergence, dosage 80 g/ha, visual assessment about 3 weeks after treatment vs untreated controls
Outline: as §1

POLCO [18] = test: Post-emergence action against POLCO; assay type: in vivo, Polygonum convolvulus; details: post-emergence, dosage 80 g/ha
Outline: as §1

POLCO [19] = test: Pre-emergence action against POLCO; assay type: in vivo, Polygonum convolvulus; details: Dosage 320 g/ha, pre-emergence
Outline: as §2

SETVI [20] = test: Post-emergence action against SETVI; assay type: in vivo, Setaria viridis; details: post-emergence, dosage 80 g/ha, visual assessment about 3 weeks after treatment vs untreated controls
Outline: as §1

LOLRI = test: Pre-emergence action against LOLRI; assay type: in vivo, Lolium rigidum; details: dosage 320 g/ha, scored visually after 3 weeks vs untreated controls
Outline: as §2

DIGSA = test: Pre-emergence action against DIGSA; assay type: in vivo, Digitaria sanguinalis; details: dosage 320 g/ha, scored visually after 3 weeks vs untreated controls
Description: as §3

Row | SMILES | Post-emergence action against STEME (STEME [1]) | Post-emergence action against VERPE (VERPE [2]) | Pre-emergence action against VERPE (VERPE [3]) | Pre-emergence action against CYPES (herbicidal activity) (CYPES [4]) | Post-emergence action against ECHCG (herbicidal action in percent) (ECHCG [5]) | SETVI (Table B8, pre-emergence herbicidal activity) (SETVI [6]) | Pre-emergence action against ALOMY (herbicidal activity in percent) (ALOMY) | Pre-emergence action against MATIN (MATIN [7]) | Pre-emergence action against AMARE (herbicidal activity) (AMARE [8]) | Pre-emergence action against ABUTH (herbicidal activity) (ABUTH [9]) | Pre-emergence action against ECHCG (herbicidal activity) (ECHCG [10]) | Pre-emergence action against AVEFA (herbicidal activity) (AVEFA) | Post-emergence action against VIOTR (VIOTR [11]) | Post-emergence action against ABUTH (herbicidal action in percent) (ABUTH [12]) | Post-emergence action against AMARE (herbicidal action in percent) (AMARE [13]) | Post-emergence action against PHBPU (PHBPU) | Pre-emergence action against VIOTR (VIOTR [14]) | Pre-emergence action against LOLMU (herbicidal activity) (LOLMU) | Pre-emergence action against STEME (STEME [15]) | Post-emergence action against MATIN (herbicidal action in percent) (MATIN [16]) | also measured
1 | CCn1nnnc1NC(=O)c1ccc(Cl)c(C(C)=O)c1Cl [2-114] | 100 | 80 | 90% | 90% | 90% | 90% | 80% | 90% | 100% | 100% | 100% | 80% | 100 | 90% | 100% | 90 | 100% | 80% | 90% | 80% | Post-emergence action against CYPES (herbicidal action in percent) (CYPES [17]): 90%; Post-emergence action against POLCO (POLCO [18]): 90
2 | CCn1nnnc1NC(=O)c1ccc(C(F)(F)F)c(C(C)=O)c1OC [2-48] | 100 | 80 | 100% | 100% | 90% | 100% | 90% | 100% | 100% | 100% | 100% | – | 100 | 100% | 90% | 100 | 100% | 80% | 90% | 100% | Pre-emergence action against POLCO (POLCO [19]): 90%; Post-emergence action against SETVI (herbicidal action in percent) (SETVI [20]): 80%; Post-emergence action against CYPES (herbicidal action in percent) (CYPES [17]): 100%; Post-emergence action against POLCO (POLCO [18]): 80
3 | CSc1c(C(=O)Nc2nnnn2C)ccc(C(F)(F)F)c1C(=O)C1CCCC1 [1-285] | 80 | – | 90% | – | – | – | – | 100% | 100% | 100% | 80% | 80% | – | 90% | 90% | 80 | 100% | – | 100% | – | Pre-emergence action against LOLRI (herbicidal activity) (LOLRI): 80%; Pre-emergence action against DIGSA (herbicidal activity) (DIGSA): 90%
